The record followed here is ChEMBL document CHEMBL5131569, “SAGE-718: A First-in-Class N-Methyl-d-Aspartate Receptor Positive Allosteric Modulator for the Potential Treatment of Cognitive Impairment” (J Med Chem, 2022).

In general, logD refers to the decadic logarithm of the distribution of all forms, ionised or not, between an organic phase and buffer at a given pH. Lower therefore signals lower lipophilicity.

The nature of data set [1]: Drug concentration in CD-1 mouse brain at 5 mg/kg, ip administered for 90 mins. Format: ADME, organism-based. To be noted: read-out: Ct.
The subject of data set [2] is Mus musculus. Nature of the data set: Reversal of DOI-induced hyperlocomotion in CD-1 mouse assessed as reduction in distance travel at 3 mg/kg, ip administered 90 mins prior to DOI induction and measured upto 30 mins post DOI treatment (reference value: 7.8 +/- 0.8 meter). Format: functional. To be noted: time <= 120 min, 2 h.
Data set [3] is described as follows: Plasma protein binding in mouse after 15 mins by equilibrium dialysis method. Format: ADME, cell-free. To be noted: read-out: PPB (converted). In general terms: In equilibrium dialysis free small molecules cross a membrane that holds back macromolecules.
The nature of data set [4]: Lipophilicity, logD of compound in MeOH at 20 uM by HPLC analysis. Format: physicochemical.

Take `C[C@H](CC[C@](C)(O)C(F)(F)F)[C@H]1CC[C@H]2[C@@H]3CC=C4C[C@@](C)(O)CC[C@]4(C)[C@H]3CC[C@]12C` [DALZANEMDOR]: the concentration at 1.5 h in data set [1] stood at 894 ng/g. For the same compound, the Activity in data set [2] is on record as 6.9 m. In addition, the fraction unbound at 0.25 h in data set [3] was 0.014. In addition, the logD at 20 µM in data set [4] is 6.2.
